Consider one substance from US20260055381A1, “PROTEIN, POLYNUCLEOTIDE, EXPRESSION VECTOR, TRANSFORMANT, PLASMALOGEN-CONTAINING COMPOSITION, AND METHOD FOR PRODUCING PLASMALOGEN” (INSTITUTE OF RHEOLOGICAL FUNCTION OF FOOD CO., LTD., priority 2022, published 2026).

The nature of this assay: Production of plasmalogen in suis plsA-transformed E. coli (phospholipid by HPLC-ELSD, aldehyde after acid hydrolysis). Particulars: in aerobically grown E. coli. The method, then:
After thawing the bacterial cells, the total weight of the cells was measured. After 1 mL of water was added to and mixed with the bacterial cells, 3.75 mL of chloroform/methanol (1:2, v/v) was added thereto, and the resulting mixture was mixed. The mixture was subjected to sonication for 10 minutes, and then left to stand at room temperature for 30 minutes. After adding 1.25 mL chloroform to the mixture, 1.25 mL water was added thereto. After performing centrifugation, the chloroform layer was transferred to a glass tube, and the remaining aqueous layer was subjected to re-extraction with 2 mL of chloroform. The resulting combined chloroform layer was dried under nitrogen gas, and resuspended in hexane/isopropanol (3:2, v/v) to a bacterial cell concentration of 120 mg/mL, followed by filtration through a 0.45-μm filter. After injecting 10 μL of the bacterial cell suspension into high-performance liquid chromatography (HPLC), detection was performed by an evaporative light-scattering detector (ELSD).
Lipid standard solutions with different concentrations were also detected by HPLC-ELSD. A calibration curve was prepared based on the peak area at each concentration, and the amount of phospholipids was calculated from the area ratio of the peak corresponding to phospholipids obtained from the E. coli with a retention time of 10 to 20 minutes. […]

As to “suis PlsA protein: PlsA protein of 1639 amino acids of SEQ ID NO:2, from B. longum suis subspecies”, the plasmalogen synthesis activity result was “shown to have a plasmalogen synthesis activity”.
